The record followed here is patent publication US8008484B2 (priority 2004, dated 2011).

In series [1] the test system is Cucumber (variety: SAGAMI HANPAKU). The series can be described thus: Phytotoxicity studied in the Botrytis cinerea foliage test. Type of series: in vivo. Conditions: cucumber seedlings, foliar spray, 500 ppm. As for the experimental part: Cucumber (variety: SAGAMI HANPAKU) was cultivated in a plastic pot of 4 cm diameter. A diluted solution of an active compound of the prescribed concentration, prepared in a similar manner as in the above-mentioned Test Example 1, was sprayed to seedlings reached to cotyledon in an amount of 6 ml per 2 pots. One day after the spraying, an inoculant, prepared by mixing a suspension of artificially cultured spores of Botrytis cinerea and agar gel (2×10^4 spores/ml gel), was placed on cotyledons to inoculate and infected in a moisture box kept at 20° C. Four days after the inoculation, the contraction rate per cotyledon was classified and evaluated according to the following standard to obtain the controlling value (%). Phytotoxicity was also studied at the same time. This test is an average of the results of 2 sections 4 cotyledons.

Series [2] concerns Paddy rice (variety: KOSIHIKARI). Conditions: foliar spray, 500 ppm.

Take `COc1cc(OC)nc(C(O)c2cc(C)cc(F)c2NS(=O)(=O)C(F)F)n1` (racemic) [Compound 4-107]: the Phytotoxicity result in series [1] is listed as “No phytotoxicity was observed”. As to `COc1cc(OC)nc(C(O)c2cc(C)cc(Cl)c2NS(=O)(=O)C(F)F)n1` (racemic) [Compound 4-130], the Phytotoxicity entry in series [2] and in series [1] was “No phytotoxicity was observed” throughout. `COc1cc(OC)nc(C(O)c2ccc(F)c(C)c2NS(=O)(=O)C(F)F)n1` (racemic) [Compound 4-184]: the Phytotoxicity result in series [2] was “No phytotoxicity was observed”. Turning to `COc1cc(OC)nc(C(O)c2ccc(F)cc2NS(=O)(=O)C(F)F)n1` (racemic) [Compound 4-186], the Phytotoxicity entry in series [1] is on record as “No phytotoxicity was observed”.

In the case of `COc1cc(OC)nc(C(O)c2ccc(C)c(C)c2NS(=O)(=O)C(F)F)n1` (racemic) [Compound 4-187], in series [1], the Phytotoxicity result is recorded as “No phytotoxicity was observed”. Turning to `COc1cc(OC)nc(C(O)c2cc(C)cc(F)c2NS(=O)(=O)CC(F)(F)F)n1` (racemic) [Compound 12-131], the Phytotoxicity entry in series [2] is recorded as “No phytotoxicity was observed”. Turning to `COc1cc(OC)nc(C(O)c2ccc(F)c(C)c2NS(=O)(=O)CC(F)(F)F)n1` (racemic) [Compound 12-137], the Phytotoxicity result in series [2] is recorded as “No phytotoxicity was observed”. For `COc1cc(OC)nc(C(SC)c2cccc(F)c2NS(=O)(=O)C(F)F)n1` (stereo not shown) [Compound 1-14], the Phytotoxicity entry in series [1] is given as “No phytotoxicity was observed”.

Turning to `COc1cc(OC)nc(Cc2ccccc2NS(=O)(=O)C(F)F)n1` [Compound 2-1], the Phytotoxicity entry in series [1] is “No phytotoxicity was observed”.

On to `COc1cc(OC)nc(Cc2cccc(F)c2N(C(C)=O)S(=O)(=O)C(F)F)n1` [Compound 2-18], for which the Phytotoxicity result in series [1] is on record as “No phytotoxicity was observed”. For `COc1cc(OC)nc(Cc2cccc(Cl)c2N(C(C)=O)S(=O)(=O)C(F)F)n1` [Compound 2-31], the Phytotoxicity result in series [2] and in series [1] was “No phytotoxicity was observed” in each case.

For the compound `COC(=O)N(c1c(Cl)cccc1Cc1nc(OC)cc(OC)n1)S(=O)(=O)C(F)F` [Compound 2-32], the Phytotoxicity result in series [2] is “No phytotoxicity was observed”. The same measure, in the same setting: as for `COc1cc(OC)nc(Cc2ccc(F)cc2NS(=O)(=O)C(F)F)n1` [Compound 2-61], the entry is “No phytotoxicity was observed”; as for `COc1cc(OC)nc(Cc2cc(F)ccc2NS(=O)(=O)C(F)F)n1` [Compound 2-62], “No phytotoxicity was observed”.

On to `COc1cc(OC)nc(Cc2ccc(F)c(F)c2NS(=O)(=O)C(F)F)n1` [Compound 2-110], for which, in series [1], the Phytotoxicity result is given as “No phytotoxicity was observed”. With `COc1cc(OC)nc(Cc2cc(F)c(Cl)c(F)c2NS(=O)(=O)C(F)F)n1` [Compound 2-125], the Phytotoxicity result in series [2] is reported as “No phytotoxicity was observed”. With `COc1cc(OC)nc(Cc2c(Cl)ccc(Cl)c2NS(=O)(=O)C(F)F)n1` [Compound 2-138], the Phytotoxicity entry in series [1] is reported as “No phytotoxicity was observed”. As for `COc1cc(OC)nc(Cc2cc(C)c(F)cc2NS(=O)(=O)C(F)F)n1` [Compound 2-190], the Phytotoxicity entry in series [2] is “No phytotoxicity was observed”. For `COc1cc(OC)nc(Cc2cccc(Cl)c2N(C(=O)C2CC2)S(=O)(=O)C(F)F)n1` [Compound 2-191], the Phytotoxicity result in series [2] and in series [1] was “No phytotoxicity was observed” throughout. As for `COc1cc(OC)nc(Cc2cc(C)cc(C)c2NS(=O)(=O)C(F)F)n1` [Compound 2-192], the Phytotoxicity result in series [1] is listed as “No phytotoxicity was observed”.

Regarding `COc1cc(OC)nc(Cc2ccc(F)c(C)c2NS(=O)(=O)C(F)F)n1` [Compound 2-193], the Phytotoxicity result in series [2] is given as “No phytotoxicity was observed”.

Turning to `COc1cc(OC)nc(C(=O)c2cccc(Cl)c2N(C(C)=O)S(=O)(=O)C(F)F)n1` [Compound 3-22], in series [2], the Phytotoxicity result is recorded as “No phytotoxicity was observed”. Turning to `COc1cc(OC)nc(C(=O)c2cccc(F)c2NS(=O)(=O)C(F)F)n1` [Compound 9-25], the Phytotoxicity result in series [1] is “No phytotoxicity was observed”.

For `COc1cc(OC)nc(C(=O)c2cccc(Cl)c2NS(=O)(=O)C(F)F)n1` [Compound 9-26], the Phytotoxicity entry in series [1] is given as “No phytotoxicity was observed”. On the same count and under the same terms, as for `COc1nc(OC)nc(C(=O)c2ccccc2NS(=O)(=O)C(F)F)n1` [Compound 9-48], the entry is “No phytotoxicity was observed”.

On to `COc1cc(OC)nc(C(Cl)c2cccc(F)c2NS(=O)(=O)C(F)(F)F)n1` (stereo not shown) [Compound 12-127], for which the Phytotoxicity result in series [2] is “No phytotoxicity was observed”. Take `COc1cc(OC)nc(Cc2cccc(F)c2NS(=O)(=O)C(Cl)Cl)n1` [Compound 12-136]: the Phytotoxicity result in series [1] is given as “No phytotoxicity was observed”. The same measure, in the same setting: as for `COc1cc(OC)nc(Cc2ccc(F)c(C)c2NS(=O)(=O)CC(F)(F)F)n1` [Compound 13-8], the entry is “No phytotoxicity was observed”. Take `COc1cc(OC)nc(Cc2ccccc2NS(=O)(=O)C(F)(F)F)n1` [Compound 14-2]: in series [1], the Phytotoxicity entry is “No phytotoxicity was observed”. For the compound `COc1cc(OC)nc(Cc2cccc(F)c2NS(=O)(=O)CCl)n1` [Compound 14-8], the Phytotoxicity entry in series [1] is recorded as “No phytotoxicity was observed”. On the same count and under the same terms, as for `COc1cc(OC)nc(Cc2cccc(Cl)c2NS(=O)(=O)C(F)(F)F)n1` [Compound 14-20], the entry is “No phytotoxicity was observed”; as for `COc1cc(OC)nc(Cc2cccc(Cl)c2NS(=O)(=O)CC(F)(F)F)n1` [Compound 14-22], “No phytotoxicity was observed”; as for `COc1cc(OC)nc(Cc2cccc(Cl)c2NS(=O)(=O)C(F)F)n1` [Compound 14-35], “No phytotoxicity was observed”. On to `COc1cc(OC)nc(Cc2cccc(C)c2NS(=O)(=O)C(F)F)n1` [Compound 14-37], for which the Phytotoxicity entry in series [2] and in series [1] was “No phytotoxicity was observed” throughout. Turning to `COCc1c(F)ccc(Cc2nc(OC)cc(OC)n2)c1NS(=O)(=O)C(F)F` [Compound 14-40], the Phytotoxicity result in series [1] is “No phytotoxicity was observed”.

As to `COc1cc(OC)nc(C(O)c2cccc(F)c2NS(C)(=O)=O)n1` (stereo not shown) [Compound 18-2], the Phytotoxicity entry in series [2] is “No phytotoxicity was observed”. As for `COc1cc(OC)nc(C(O)c2cccc(F)c2NS(=O)(=O)CCl)n1` (stereo not shown) [Compound 18-6], the Phytotoxicity result in series [2] and in series [1] was “No phytotoxicity was observed” each time. Take `COc1cc(OC)nc(C(O)c2cccc(F)c2NS(=O)(=O)CC(F)(F)F)n1` (stereo not shown) [Compound 18-10]: the Phytotoxicity result in series [2] and in series [1] was “No phytotoxicity was observed” in each case.

Consider `COc1cc(OC)nc(C(O)c2ccccc2NS(=O)(=O)C(F)(F)F)n1` (stereo not shown) [Compound 18-20], for which, in series [1], the Phytotoxicity result was “No phytotoxicity was observed”. Consider `COc1cc(OC)nc(C(O)c2cccc(F)c2NS(=O)(=O)C(F)(F)F)n1` (stereo not shown) [Compound 18-21], for which, in series [2], the Phytotoxicity entry is given as “No phytotoxicity was observed”. For the compound `COc1cc(OC)nc(C(O)c2ccccc2NS(=O)(=O)C(F)F)n1` (stereo not shown) [Compound 18-24], the Phytotoxicity entry in series [2] and in series [1] was “No phytotoxicity was observed” in each case. For `COc1cc(OC)nc(C(O)c2cccc(F)c2NS(=O)(=O)C(F)F)n1` (stereo not shown) [Compound 18-25], the Phytotoxicity entry in series [1] is “No phytotoxicity was observed”.

In the case of `COc1cc(OC)nc(C(O)c2cccc(Cl)c2NS(=O)(=O)C(F)F)n1` (stereo not shown) [Compound 18-26], in series [1], the Phytotoxicity result is “No phytotoxicity was observed”.

For `COc1nc(OC)nc(C(O)c2cccc(F)c2NS(=O)(=O)C(F)F)n1` (stereo not shown) [Compound 18-51], in series [1], the Phytotoxicity result is “No phytotoxicity was observed”. Regarding `COc1nc(OC)nc(C(O)c2cccc(C)c2NS(=O)(=O)C(F)F)n1` (stereo not shown) [Compound 18-53], the Phytotoxicity result in series [2] is reported as “No phytotoxicity was observed”.
